Organism: Rattus norvegicus
Test: Open TG-GATES - Regimen: Daily Repeat
Format: toxicity, organism-based, Sprague-Dawley
Parameters: regimen Daily Repeat, gender Male, age 6 weeks
Conditions: in vivo, po, route gavage; for APTT / Bas / Eos / Fbg / Hb / Ht / Lym / MCH / MCHC / MCV / Mono / Neu / PT / Plat / RBC / Ret / WBC: tissue Blood; for KIDNEY_L / KIDNEY_R / KIDNEY_TOTAL: tissue Kidney; for LIVER: tissue Liver; for A/G / ALP / ALT / AST / BUN / CRE / Ca / Cl / DBIL / GLC / IP / K / LDH / Na / PL / RALB / TBIL / TC / TG / TP / gamma-GTP: tissue Plasma
[1] = 0 mg/kg, 72 h, dose level Control, time 3 day
[2] = 0 mg/kg, […], dose level Control, time 7 day
[3] = 0 mg/kg, […], dose level Control, time 14 day
[4] = 0 mg/kg, […], dose level Control, time 28 day
[5] = 30 mg/kg, 72 h, dose level Low, time 3 day
[6] = 30 mg/kg, […], dose level Low, time 7 day
[7] = 30 mg/kg, […], dose level Low, time 14 day
[8] = 30 mg/kg, […], dose level Low, time 28 day

CC(=O)Nc1ccc2c(c1)Cc1ccccc1-2 [2-ACETYLAMINOFLUORENE]
TERMINAL_BW [1]: 245.3 g
APTT [1]: 19.9 s
Bas [1]: 1%
Eos [1]: 1.2%
Fbg [1]: 227.2 mg/dL
Hb [1]: 14 g/dL
Ht [1]: 40.4%
Lym [1]: 82.2%
MCH [1]: 21.5 pg
MCHC [1]: 34.6%
MCV [1]: 62.3 fL
Mono [1]: 3%
Neu [1]: 12.6%
PT [1]: 11.3 s
Plat [1]: 127 x10_4/uL
RBC [1]: 648.4 x10_4/ul
Ret [1]: 5.8%
WBC [1]: 105.6 x10_2/uL
KIDNEY_L [1]: 1.1 g
KIDNEY_R [1]: 1.1 g
KIDNEY_TOTAL [1]: 2.2 g
LIVER [1]: 12.2 g
A/G [1]: 1.6
ALP [1]: 913.6 IU/L
ALT [1]: 38.2 IU/L
AST [1]: 73.2 IU/L
BUN [1]: 15.2 mg/dL
CRE [1]: 0.5 mg/dL
Ca [1]: 11 mg/dL
Cl [1]: 101.8 meq/L
DBIL [1]: 0.1 mg/dL
GLC [1]: 208.4 mg/dL
IP [1]: 8 mg/dL
K [1]: 4.1 meq/L
LDH [1]: 217.2 IU/L
Na [1]: 141.2 meq/L
PL [1]: 163 mg/dL
RALB [1]: 3.6 g/dL
TBIL [1]: 0.2 mg/dL
TC [1]: 81.8 mg/dL
TG [1]: 104.6 mg/dL
TP [1]: 5.8 g/dL
gamma-GTP [1]: 1.2 IU/L
TERMINAL_BW [2]: 278.1 g
TERMINAL_BW [3]: 334.5 g
TERMINAL_BW [4]: 417 g
APTT [2]: 19.7 s
Bas [2]: 0.4%
Eos [2]: 1%
Fbg [2]: 242 mg/dL
Hb [2]: 14.1 g/dL
Ht [2]: 39.9%
Lym [2]: 82.8%
MCH [2]: 21.9 pg
MCHC [2]: 35.2%
MCV [2]: 62.1 fL
Mono [2]: 2.4%
Neu [2]: 13%
PT [2]: 11.7 s
Plat [2]: 138.4 x10_4/uL
RBC [2]: 643 x10_4/ul
Ret [2]: 5.6%
WBC [2]: 114.7 x10_2/uL
APTT [3]: 21 s
Bas [3]: 0.8%
Eos [3]: 1%
Fbg [3]: 225.8 mg/dL
Hb [3]: 14.7 g/dL
Ht [3]: 42.3%
Lym [3]: 82.8%
MCH [3]: 20.5 pg
MCHC [3]: 34.7%
MCV [3]: 59 fL
Mono [3]: 2.2%
Neu [3]: 12.6%
PT [3]: 11.8 s
Plat [3]: 117.3 x10_4/uL
RBC [3]: 716.4 x10_4/ul
Ret [3]: 4%
WBC [3]: 96.8 x10_2/uL
APTT [4]: 20.8 s
Bas [4]: 0.8%
Eos [4]: 1%
Fbg [4]: 215.8 mg/dL
Hb [4]: 14.9 g/dL
Ht [4]: 43%
Lym [4]: 82.4%
MCH [4]: 19.8 pg
MCHC [4]: 34.7%
MCV [4]: 57.1 fL
Mono [4]: 2.2%
Neu [4]: 13.2%
PT [4]: 11.6 s
Plat [4]: 104.4 x10_4/uL
RBC [4]: 752.2 x10_4/ul
Ret [4]: 2.6%
WBC [4]: 122.5 x10_2/uL
KIDNEY_L [2]: 1.2 g
KIDNEY_R [2]: 1.2 g
KIDNEY_TOTAL [2]: 2.4 g
KIDNEY_L [3]: 1.3 g
KIDNEY_R [3]: 1.3 g
KIDNEY_TOTAL [3]: 2.6 g
KIDNEY_L [4]: 1.5 g
KIDNEY_R [4]: 1.5 g
KIDNEY_TOTAL [4]: 3 g
LIVER [2]: 12.4 g
LIVER [3]: 14.9 g
LIVER [4]: 16.7 g
A/G [2]: 1.4
ALP [2]: 914.8 IU/L
ALT [2]: 35.8 IU/L
AST [2]: 65 IU/L
BUN [2]: 13.6 mg/dL
CRE [2]: 0.4 mg/dL
Ca [2]: 10.7 mg/dL
Cl [2]: 103.2 meq/L
DBIL [2]: 0.076 mg/dL
GLC [2]: 201.2 mg/dL
IP [2]: 7.5 mg/dL
K [2]: 4.1 meq/L
LDH [2]: 188 IU/L
Na [2]: 140.4 meq/L
PL [2]: 136.4 mg/dL
RALB [2]: 3.4 g/dL
TBIL [2]: 0.1 mg/dL
TC [2]: 64.8 mg/dL
TG [2]: 96.2 mg/dL
TP [2]: 5.7 g/dL
gamma-GTP [2]: 1.4 IU/L
A/G [3]: 1.4
ALP [3]: 880.2 IU/L
ALT [3]: 35 IU/L
AST [3]: 64.4 IU/L
BUN [3]: 15.4 mg/dL
CRE [3]: 0.5 mg/dL
Ca [3]: 10.7 mg/dL
Cl [3]: 103.4 meq/L
DBIL [3]: 0.1 mg/dL
GLC [3]: 196.2 mg/dL
IP [3]: 7.3 mg/dL
K [3]: 4.1 meq/L
LDH [3]: 169.6 IU/L
Na [3]: 141.6 meq/L
PL [3]: 143.2 mg/dL
RALB [3]: 3.5 g/dL
TBIL [3]: 0.2 mg/dL
TC [3]: 69.6 mg/dL
TG [3]: 138 mg/dL
TP [3]: 5.9 g/dL
gamma-GTP [3]: 1.2 IU/L
A/G [4]: 1.4
ALP [4]: 611.4 IU/L
ALT [4]: 30.8 IU/L
AST [4]: 61.8 IU/L
BUN [4]: 19 mg/dL
CRE [4]: 0.4 mg/dL
Ca [4]: 10.4 mg/dL
Cl [4]: 102.4 meq/L
DBIL [4]: 0.092 mg/dL
GLC [4]: 265 mg/dL
IP [4]: 7.2 mg/dL
K [4]: 3.8 meq/L
LDH [4]: 194.4 IU/L
Na [4]: 140.4 meq/L
PL [4]: 143.4 mg/dL
RALB [4]: 3.4 g/dL
TBIL [4]: 0.1 mg/dL
TC [4]: 69.8 mg/dL
TG [4]: 107.8 mg/dL
TP [4]: 5.8 g/dL
gamma-GTP [4]: 1 IU/L
TERMINAL_BW [5]: 222.5 g
APTT [5]: 18.9 s
Bas [5]: 0.6%
Eos [5]: 1%
Fbg [5]: 226.6 mg/dL
Hb [5]: 14.8 g/dL
Ht [5]: 42.2%
Lym [5]: 81%
MCH [5]: 22.3 pg
MCHC [5]: 35%
MCV [5]: 63.7 fL
Mono [5]: 2.8%
Neu [5]: 14%
PT [5]: 12.3 s
Plat [5]: 131.4 x10_4/uL
RBC [5]: 663 x10_4/ul
Ret [5]: 4.1%
WBC [5]: 118 x10_2/uL
KIDNEY_L [5]: 1 g
KIDNEY_R [5]: 1 g
KIDNEY_TOTAL [5]: 2 g
LIVER [5]: 10.6 g
A/G [5]: 1.5
ALP [5]: 746.6 IU/L
ALT [5]: 26.6 IU/L
AST [5]: 69.2 IU/L
BUN [5]: 12.4 mg/dL
CRE [5]: 0.4 mg/dL
Ca [5]: 10.3 mg/dL
Cl [5]: 102.8 meq/L
DBIL [5]: 0.086 mg/dL
GLC [5]: 196.4 mg/dL
IP [5]: 7.2 mg/dL
K [5]: 4.1 meq/L
LDH [5]: 241 IU/L
Na [5]: 140.2 meq/L
PL [5]: 100.8 mg/dL
RALB [5]: 2.9 g/dL
TBIL [5]: 0.1 mg/dL
TC [5]: 50.2 mg/dL
TG [5]: 77 mg/dL
TP [5]: 5 g/dL
gamma-GTP [5]: 1.2 IU/L
TERMINAL_BW [6]: 239.2 g
TERMINAL_BW [7]: 259.1 g
TERMINAL_BW [8]: 315.1 g
APTT [6]: 18.4 s
Bas [6]: 0.8%
Eos [6]: 1%
Fbg [6]: 204 mg/dL
Hb [6]: 15.4 g/dL
Ht [6]: 42.8%
Lym [6]: 82%
MCH [6]: 22.2 pg
MCHC [6]: 35.9%
MCV [6]: 61.9 fL
Mono [6]: 3%
Neu [6]: 12.6%
PT [6]: 13 s
Plat [6]: 159.6 x10_4/uL
RBC [6]: 692.2 x10_4/ul
Ret [6]: 1.8%
WBC [6]: 125.9 x10_2/uL
APTT [7]: 19.1 s
Bas [7]: 1%
Eos [7]: 0%
Fbg [7]: 102.2 mg/dL
Hb [7]: 14.7 g/dL
Ht [7]: 42%
Lym [7]: 79.8%
MCH [7]: 19.7 pg
MCHC [7]: 35%
MCV [7]: 56.3 fL
Mono [7]: 3.2%
Neu [7]: 15.6%
PT [7]: 14.9 s
Plat [7]: 144.2 x10_4/uL
RBC [7]: 747.2 x10_4/ul
Ret [7]: 1.8%
WBC [7]: 145.6 x10_2/uL
APTT [8]: 25.4 s
Bas [8]: 0.8%
Eos [8]: 0.6%
Fbg [8]: 78.2 mg/dL
Hb [8]: 14 g/dL
Ht [8]: 40.8%
Lym [8]: 67.6%
MCH [8]: 19 pg
MCHC [8]: 34.3%
MCV [8]: 55.4 fL
Mono [8]: 4.2%
Neu [8]: 26.4%
PT [8]: 19.2 s
Plat [8]: 102.7 x10_4/uL
RBC [8]: 735.6 x10_4/ul
Ret [8]: 5.3%
WBC [8]: 274.6 x10_2/uL
KIDNEY_L [6]: 1 g
KIDNEY_R [6]: 1 g
KIDNEY_TOTAL [6]: 2 g
KIDNEY_L [7]: 1.1 g
KIDNEY_R [7]: 1.1 g
KIDNEY_TOTAL [7]: 2.2 g
KIDNEY_L [8]: 1.3 g
KIDNEY_R [8]: 1.3 g
KIDNEY_TOTAL [8]: 2.6 g
LIVER [6]: 10.5 g
LIVER [7]: 9.9 g
LIVER [8]: 10.2 g
A/G [6]: 1.4
ALP [6]: 1055.8 IU/L
ALT [6]: 35 IU/L
AST [6]: 88 IU/L
BUN [6]: 13.8 mg/dL
CRE [6]: 0.5 mg/dL
Ca [6]: 10.2 mg/dL
Cl [6]: 105.2 meq/L
DBIL [6]: 0.096 mg/dL
GLC [6]: 182.2 mg/dL
IP [6]: 6.4 mg/dL
K [6]: 3.9 meq/L
LDH [6]: 271 IU/L
Na [6]: 140.2 meq/L
PL [6]: 110.6 mg/dL
RALB [6]: 2.6 g/dL
TBIL [6]: 0.2 mg/dL
TC [6]: 44.4 mg/dL
TG [6]: 115 mg/dL
TP [6]: 4.4 g/dL
gamma-GTP [6]: 1.6 IU/L
A/G [7]: 1.3
ALP [7]: 1040.6 IU/L
ALT [7]: 42 IU/L
AST [7]: 98.6 IU/L
BUN [7]: 13 mg/dL
CRE [7]: 0.5 mg/dL
Ca [7]: 9.4 mg/dL
Cl [7]: 104.6 meq/L
DBIL [7]: 0.5 mg/dL
GLC [7]: 171 mg/dL
IP [7]: 7.1 mg/dL
K [7]: 3.9 meq/L
LDH [7]: 211.2 IU/L
Na [7]: 141.2 meq/L
PL [7]: 102.4 mg/dL
RALB [7]: 2.2 g/dL
TBIL [7]: 0.7 mg/dL
TC [7]: 40.8 mg/dL
TG [7]: 43.8 mg/dL
TP [7]: 3.8 g/dL
gamma-GTP [7]: 1.4 IU/L
A/G [8]: 1
ALP [8]: 883 IU/L
ALT [8]: 57.8 IU/L
AST [8]: 155.4 IU/L
BUN [8]: 17.2 mg/dL
CRE [8]: 0.4 mg/dL
Ca [8]: 8.5 mg/dL
Cl [8]: 103.6 meq/L
DBIL [8]: 3 mg/dL
GLC [8]: 130.6 mg/dL
IP [8]: 6.8 mg/dL
K [8]: 4.2 meq/L
LDH [8]: 252.2 IU/L
Na [8]: 140.2 meq/L
PL [8]: 120.2 mg/dL
RALB [8]: 1.7 g/dL
TBIL [8]: 3.8 mg/dL
TC [8]: 60.2 mg/dL
TG [8]: 30.2 mg/dL
TP [8]: 3.4 g/dL
gamma-GTP [8]: 25.4 IU/L

Source: ChEMBL document CHEMBL3885861, “Open TG-GATES”
